Test results published in ChEMBL document CHEMBL1158673, “Bioactive kaurane diterpenoids from Annona glabra” (J Nat Prod, 1998).
≈ marks a conversion by molar mass, not a printed value. Calls of active or inactive are those of the source. The rule behind the calls is not given here.

How the values were obtained:
[1] = test system: Human immunodeficiency virus; assay: Inhibition of HIV reverse transcriptase at 33 ug/mL by scintillation counting
[2] = Therapeutic index, ratio of IC50 for human H9 cells to EC50 for HIV; type: cell-based; details: for therapeutic index: H9; for Activity: human, h9
[3] = test system: Human immunodeficiency virus; assay: Antiviral activity against HIV infected in human H9 cells assessed as viral replication; type: functional, organism-based; details: for EC50: Human immunodeficiency virus 1, H9
[4] = test system: H9; assay: Cytotoxicity against human H9 cells; type: cell-based

Compound	inhibition [1] [%]	EC50 [3] [µg/mL]	therapeutic index [2]	IC50 [4] [µg/mL]	Activity [2]	Activity [3]
C[C@@]12CCC[C@@](C)(C=O)[C@H]1CC[C@@]13C[C@H](CC[C@H]12)[C@@H](C(=O)O)C3	14	–	–	–	–	–
COC(=O)[C@]1(OC(C)=O)C[C@@]23CC[C@H]4[C@@](C)(CCC[C@@]4(C)C=O)[C@@H]2CC[C@H]1C3 [ANNOGLABASIN A]	–	10 (≈ 25.6 µM)	1.5	15 (≈ 38.4 µM)	–	–
CC(=O)OC[C@]1(C)CCC[C@]2(C)[C@@H]1CC[C@@]13C[C@H](CC[C@H]12)[C@@H](C(=O)O)C3 [ANNOGLABASIN B]	–	–	–	40 (≈ 110 µM)	Not Active	inactive
Cc1cn([C@H]2C[C@H](N=[N+]=[N-])[C@@H](CO)O2)c(=O)[nH]c1=O [ZIDOVUDINE]	–	0.01 (≈ 0.0374 µM)	50000	–	–	–
COC(=O)[C@H]1C[C@@]23CC[C@H]4[C@@](C)(CCC[C@@]4(C)C=O)[C@@H]2CC[C@H]1C3	–	5 (≈ 15 µM)	4	20 (≈ 60.2 µM)	–	–
CC1(C)CCC[C@]2(C)[C@@H]1CC[C@@]13C[C@H](CC[C@H]12)[C@@H](C(=O)O)C3	–	–	–	40 (≈ 131 µM)	Not Active	inactive

The next lines start with results.

inhibition [1] [%]	EC50 [3] [µg/mL]	Compound	therapeutic index [2]	IC50 [4] [µg/mL]	Activity [2]	Activity [3]
1	–	C=C1C[C@@]23CC[C@H]4[C@@](C)(CCC[C@@]4(C)C(=O)O)[C@@H]2CC[C@@H]1C3	–	–	–	–
–	85 (≈ 225 µM)	CC(=O)OC[C@]1(O)C[C@@]23CC[C@H]4[C@@](C)(CCC[C@@]4(C)C(=O)O)[C@@H]2CC[C@H]1C3	0.8	65 (≈ 172 µM)	–	–
7	–	C=C1C[C@@]23CC[C@@H]4[C@](C)(CO)CCC[C@@]4(C)[C@@H]2CC[C@H]1C3	–	–	–	–
46	–	C[C@@]12CCC[C@@](C)(C(=O)O)[C@H]1CC[C@@]13C[C@H](CC[C@H]12)[C@@](O)(CO)C3	–	–	–	–
–	24 (≈ 78.8 µM)	CC1(C)CCC[C@]2(C)[C@@H]1CC[C@@]13C[C@H](CC[C@H]12)[C@H](C(=O)O)C3	1.3	32 (≈ 105 µM)	–	–
